From patent US10376468B2, “Block copolymers and self-assembling nanoparticles formed therefrom” (International Business Machines Corporation, priority 2017, dated 2019)

System: nude BALB/c mice bearing subcutaneous PC-3 tumors
Experiment: Biodistribution of DiR-loaded mixed micelles, whole body live imaging
Type: in vivo
Conditions: tail-vein injection
From the text: To test the biodistribution of the micelles of the invention, DiR, a near-infrared fluorophore, was encapsulated in MM5D micelles and administered through tail-vein intravenous injection to nude BALB/c mice bearing subcutaneous PC-3 tumors. The in vivo real-time biodistribution of the fluorophore was studied by whole body live imaging at various time points over seven days. An equivalent amount of free DiR was similarly administered to a control group of mice.
The loading of DiR in MM5D micelles was carried out according to the DOX-loading protocol described above. Briefly, polymer (10 mg) and DiR (0.3 mg) were dissolved in DMSO (2 mL) and the mixture pipetted drop-by-drop into 10 mL of deionized water, with sonification for 10 minutes. The solution was dialyzed against deionized water for 48 hours, with the water changed at 3-, 6-, and 24-hours.
PC-3 cells (5 □ 106) suspended in Matrigel (1:1 ratio) were injected subcutaneously (200 μL) into the right flank of male BALB/c mice. Five weeks post-injection, when the tumor reached 5-7 mm in diameter, mice were treated with 8 mg/kg DiR-loaded mixed micelles via tail-vein injection or an equivalent amount of free DiR.
Whole-body fluorescence images were taken using Xenogen IVIS 100 with an ICG filter (excitation 710-760 nm, emission at 810-875 nm) at time points ranging from 30 minutes to 7-days post-administration. Anesthetized animals (n=3 for micelle formulation and n=2 for free DiR) were placed ion one lateral position on a heated plate (37° C.) for image acquisition with an exposure time set to 2 seconds. Tumors and organs were removed from sacrificed mice after 7-days post-administration and then imaged.

[1] = organs removed 7-days post-administration

For `CCCCCCCCCCCCCCCCCCN1/C(=C/C=C/C=C/C=C/C2=[N+](CCCCCCCCCCCCCCCCCC)c3ccccc3C2(C)C)C(C)(C)c2ccccc21.[I-]` [free DiR], the “DiR signal in the subcutaneous tumor at 48-hours post-injection” value (8 mg/kg or equivalent free DiR) was “Little or no signal”, the “Distribution of DiR fluorescence signal at 24-hours” value (8 mg/kg or equivalent free DiR) was “concentrated strongly in the liver” and the “DiR signal in the tumor (FIG. 9, tumors and organs)” value [1] was “little or no signal in the tumor”. The “Tissues with strongest DiR signal (FIG. 9, tumors and organs)” value [1] was “strongest signal in the lungs, liver, and spleen”.
